Measurements published in patent US20230382924A1, “MODULATORS OF CYSTIC FIBROSIS TRANSMEMBRANE CONDUCTANCE REGULATOR” (VERTEX PHARMACEUTICALS INCORPORATED, priority 2020, published 2023).
pEC50: −log10 of the molar value. Where two headings read alike, the source gives them in different places. Values belong to the compound of their own block, whether it stands above or below them.

Molecular target: CFTR (Homo sapiens, UniProt P13569)
Assay: Membrane Potential Dye, Enteroid Assay A
Format: cell-based
Details: for pEC50: read-out: Ent. A EC50
Experimental: Base medium (ADF+++) consisted of Advanced DMEM/Ham's F12, 2 mM Glutamax, 10 mM HEPES, […] penicillin/streptomycin.
Bath 1 Buffer consisted of 1 mM MgCl2, 160 mM NaCl, 4.5 mM KCl, 10 mM HEPES, 10 mM Glucose, 2 mM CaCl2).
Chloride Free Buffer consisted of 1 mM Magnesium Gluconate, 2 mM Calcium Gluconate, 4.5 mM Potassium Gluconate, 160 mM Sodium Gluconate, 10 mM HEPES, 10 mM Glucose.
Bath 1 Dye Solution consisted of Bath 1 Buffer, 0.04% Pluronic F127, 20 μM Methyl Oxonol, 30 μM CaCCinh-A01, 30 μM Chicago Sky Blue.
Chloride Free Dye Solution consisted of Chloride Free Buffer, 0.04% Pluronic F127, 20 μM Methyl Oxonol, 30 μM CaCCinh-A01, 30 μM Chicago Sky Blue.
3. Enteroid Cell Harvesting and Seeding
Cells were recovered in cell recovery solution, collected by centrifugation at 650 rpm for 5 min at 4° C., resuspended in TryPLE and incubated for 5 min at 37° C. Cells were then collected by centrifugation at 650 rpm for 5 min at 4° C. and resuspended in IEMM containing 10 μM ROCK inhibitor (RI).
4. Membrane Potential Dye, Enteroid Assay A
Briefly, cells were washed 5 times in Bath 1 Buffer. Bath 1 Dye Solution was added, and the cells were incubated for 25 min at room temperature. Following dye incubation, cells were washed 3 times in Chloride Free Dye Solution. Chloride transport was initiated by addition of Chloride Free Dye Stimulation Solution and the fluorescence signal was read for 15 min. […] Chloride transport was then expressed as a percentage of the chloride transport following treatment with 3 μM N-[(6-amino-2-pyridyl)sulfonyl]-6-(3-fluoro-5-isobutoxy-phenyl)-2-[(4S)-2,2,4-trimethylpyrrolidin-1-yl]pyridine-3-carboxamide, 3 μM (R)-1-(2,2-difluorobenzo[d][1,3]dioxol-5-yl)-N-(1-(2,3-dihydroxypropyl)-6-fluoro-2-(1-hydroxy-2-methylpropan-2-yl)-1H-indol-5-yl)cyclopropanecarboxamide and 300 nM acute N-[2,4-bis(1,1-dimethylethyl)-5-hydroxyphenyl]-1,4-dihydro-4-oxoquinoline-3-carboxamide triple combination control (% Activity).

Chain of CFTR (P13569 with tags, fused parts or gaps DEL508-508): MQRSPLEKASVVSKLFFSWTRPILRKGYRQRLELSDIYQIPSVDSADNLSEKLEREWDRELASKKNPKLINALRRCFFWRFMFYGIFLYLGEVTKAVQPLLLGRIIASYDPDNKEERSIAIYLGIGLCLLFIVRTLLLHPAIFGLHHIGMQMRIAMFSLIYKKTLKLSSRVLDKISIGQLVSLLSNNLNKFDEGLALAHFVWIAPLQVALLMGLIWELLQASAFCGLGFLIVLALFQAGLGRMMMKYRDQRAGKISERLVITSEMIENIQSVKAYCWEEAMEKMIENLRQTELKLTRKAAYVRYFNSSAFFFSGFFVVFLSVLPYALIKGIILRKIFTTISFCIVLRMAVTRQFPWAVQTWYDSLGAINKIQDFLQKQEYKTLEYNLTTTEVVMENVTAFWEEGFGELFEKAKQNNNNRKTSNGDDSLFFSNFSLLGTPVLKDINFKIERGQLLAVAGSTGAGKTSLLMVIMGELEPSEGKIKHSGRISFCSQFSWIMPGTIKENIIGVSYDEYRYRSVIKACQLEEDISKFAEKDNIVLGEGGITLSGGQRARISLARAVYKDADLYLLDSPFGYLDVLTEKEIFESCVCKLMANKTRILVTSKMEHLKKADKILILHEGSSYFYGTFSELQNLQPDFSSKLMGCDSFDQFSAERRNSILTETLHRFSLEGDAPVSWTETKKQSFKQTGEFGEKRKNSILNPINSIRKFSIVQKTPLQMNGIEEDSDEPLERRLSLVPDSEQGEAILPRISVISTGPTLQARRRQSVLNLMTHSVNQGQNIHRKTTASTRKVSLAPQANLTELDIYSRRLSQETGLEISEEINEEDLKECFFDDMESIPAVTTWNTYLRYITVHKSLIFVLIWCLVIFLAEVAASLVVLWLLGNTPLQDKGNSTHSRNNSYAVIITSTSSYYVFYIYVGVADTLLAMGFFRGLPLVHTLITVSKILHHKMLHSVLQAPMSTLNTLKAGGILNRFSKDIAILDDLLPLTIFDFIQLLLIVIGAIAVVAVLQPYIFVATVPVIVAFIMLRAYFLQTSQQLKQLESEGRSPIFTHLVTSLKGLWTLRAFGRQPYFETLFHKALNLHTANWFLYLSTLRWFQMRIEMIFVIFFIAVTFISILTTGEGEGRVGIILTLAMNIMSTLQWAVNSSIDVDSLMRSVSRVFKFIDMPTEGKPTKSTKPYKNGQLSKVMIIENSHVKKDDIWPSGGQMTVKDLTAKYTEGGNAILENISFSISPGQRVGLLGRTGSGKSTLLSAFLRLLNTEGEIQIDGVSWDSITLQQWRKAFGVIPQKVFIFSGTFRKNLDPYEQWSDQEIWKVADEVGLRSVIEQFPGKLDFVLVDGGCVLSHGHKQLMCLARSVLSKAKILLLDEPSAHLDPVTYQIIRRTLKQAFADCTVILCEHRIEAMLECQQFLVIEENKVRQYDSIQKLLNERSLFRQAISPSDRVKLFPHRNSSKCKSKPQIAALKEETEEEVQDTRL

Compound: Cc1cccc(C)c1-c1cc2nc(n1)NS(=O)(=O)c1cccc(c1)C(=O)NC1(CCN(C(C)C)CC1)CO2 [Compound 175]
Ent. A Max Activity (Table 9): + (+ is <30%)
pEC50 (Table 9): 4.52 to 5.52

Compound: Cc1cccc(C)c1-c1cc2nc(n1)NS(=O)(=O)c1cccc(c1)C(=O)NCC(C13CC4CC(CC(C4)C1)C3)O2 (centres unmarked) [Compound 244]
pEC50 (Table 8): > 6.00

Compound: Cc1cccc(C)c1-c1cc2nc(n1)NS(=O)(=O)c1cccc(c1)C(=O)N[C@@H](CCC(C)(C)C)CO2 (single isomer, unassigned) [Compound 48]
Ent. A Max Activity (Table 8): + (+ is <30%)
pEC50 (Table 8): > 6.00

Compound: Cc1cccc(C)c1-c1cc2nc(n1)NS(=O)(=O)c1cccc(c1)C(=O)NCC1(CCN(CCc3ccccc3)CC1)CO2 [Compound 444]
Ent. A Max Activity (Enteroid Assay A): ++ (++ is 30-60%)
pEC50 (Enteroid Assay A): 4.52 to 5.52

Compound: Cc1cccc(C)c1-c1cc2nc(n1)NS(=O)(=O)c1cccc(c1)C(=O)NCC1(CCN(Cc3cccc(OC(F)(F)F)c3F)CC1)CO2 [Compound 431]
Ent. A Max Activity (Enteroid Assay A): ++ (++ is 30-60%)
pEC50 (Enteroid Assay A): > 6.00

Compound: Cc1cccc(C)c1-c1cc2nc(n1)NS(=O)(=O)c1cccc(c1)C(=O)N[C@@H]1CCN(C(=O)OC(C)(C)C)C[C@H]1O2 (single isomer, unassigned) [Compound 88, tert-Butyl 20-(2,6-dimethylphenyl)-10,16,16-trioxo-2-oxa-16λ^6-thia-5,9,17,19,22-pentaazatetracyclo[16.3.1.111,15.03,8]tricosa-1(21),11(23),12,14,18(22),19-hexaene-5-carboxylate]
Ent. A Max Activity (Table 9): + (+ is <30%)

Compound: Cc1cccc(C)c1-c1cc2nc(n1)NS(=O)(=O)c1cccc(c1)C(=O)N[C@@H](c1ccccc1)CCO2 [Compound 290]
pEC50 (Table 8): 5.52 to 6.00

Compound: Cc1nc(C(F)(F)F)c(C(=O)N2CCC3(CC2)CNC(=O)c2cccc(c2)S(=O)(=O)Nc2nc(cc(-c4c(C)cccc4C)n2)OC3)s1 [Compound 460]
Ent. A Max Activity (Enteroid Assay A): ++ (++ is 30-60%)

Compound: Cc1cccc(C)c1-c1cc2nc(n1)NS(=O)(=O)c1cccc(c1)C(=O)N[C@H](c1ccccc1)CO2 [Compound 352]
Ent. A Max Activity (Enteroid Assay A): +++ (+++ is >600%)
pEC50 (Enteroid Assay A): > 6.00

Compound: CCC(CC)[C@@H]1COc2cc(-c3c(C)cccc3C)nc(n2)NS(=O)(=O)c2cccc(c2)C(=O)N1 [Compound 386]
Ent. A Max Activity (Table 8): +++ (+++ is >60%)
pEC50 (Table 8): > 6.00

Compound: CCC(C)(C)C(=O)N1CC[C@H]2NC(=O)c3cccc(c3)S(=O)(=O)Nc3nc(cc(-c4c(C)cccc4C)n3)OC2C1 (stereo in doubt) [Compound 371]
Ent. A Max Activity (Table 9): ++ (++ is 30-60%)
pEC50 (Table 9): 4.52 to 5.52

Compound: Cc1cccc(C)c1-c1cc2nc(n1)NS(=O)(=O)c1cccc(c1)CN[C@H](CC(C)C)CO2 [Compound 240]
Ent. A Max Activity (Table 9): ++ (++ is 30-60%)
pEC50 (Table 9): 4.52 to 5.52

Compound: CC(C)C[C@@H]1COc2cc(-n3ccc(C(F)(F)F)n3)nc(n2)NS(=O)(=O)c2cccc(c2)C(=O)N1 [Compound 308]
Ent. A Max Activity (Table 8): + (+ is <30%)

Compound: Cc1cccc(C)c1-c1cc2nc(n1)NS(=O)(=O)c1cccc(c1)C(=O)N[C@H]1CCN(C3CC4(CCCC4)C3)C[C@H]1O2 [Compound 384]
Ent. A Max Activity (Table 9): +++ (+++ is >60%)
pEC50 (Table 9): 5.52 to 6.00

Compound: Cc1cccc(C)c1-c1cc2nc(n1)NS(=O)(=O)c1cccc(c1)C(=O)N[C@@H](CC(C)C)CCO2 [Compound 224]
Ent. A Max Activity (Table 9): ++ (++ is 30-60%)
pEC50 (Table 9): 5.52 to 6.00

Compound: Cc1cccc(C)c1-c1cc2nc(n1)NS(=O)(=O)c1cccc(c1)C(=O)N[C@@H]1CCCC[C@@H]1O2 [Compound 363]
Ent. A Max Activity (Enteroid Assay A): ++ (++ is 30-60%)
pEC50 (Enteroid Assay A): 5.52 to 6.00

Compound: Cc1cccc(C)c1-c1cc2nc(n1)NS(=O)(=O)c1cccc(c1)C(=O)N[C@H](CC1(C(F)(F)F)CC1)CO2 (stereo in doubt) [Compound 289]
pEC50 (Table 8): 5.52 to 6.00

Compound: Cc1cccc(C)c1-c1cc2nc(n1)NS(=O)(=O)c1cccc(c1)C(=O)N[C@H](CC1CCCCC1)[C@@H](C)O2 [Compound 144]
Ent. A Max Activity (Table 8): +++ (+++ is >60%)
pEC50 (Table 8): > 6.00

Compound: CC(C)C[C@@H]1COc2cc(-n3ccc(OCCC4(C(F)(F)F)CC4)n3)nc(n2)NS(=O)(=O)c2cccc(c2)C(=O)N1 [Compound 306]
Ent. A Max Activity (Table 8): + (+ is <30%)

Compound: Cc1cccc(C)c1-c1cc2nc(n1)NS(=O)(=O)c1cccc(c1)C(=O)NC1CC(CN(C(=O)OCc3ccccc3)C1)O2 (centres unmarked) [Compound 200]
Ent. A Max Activity (Enteroid Assay A): ++ (++ is 30-60%)
pEC50 (Enteroid Assay A): 4.52 to 5.52

Compound: CCCC1(CCC)COc2cc(-c3c(C)cccc3C)nc(n2)NS(=O)(=O)c2cccc(c2)C(=O)N1 [Compound 184]
Ent. A Max Activity (Table 9): +++ (+++ is >60%)
pEC50 (Table 9): > 6.00

Compound: Cc1cccc(C)c1-c1cc2nc(n1)NS(=O)(=O)c1cccc(c1)C(=O)N[C@@H]1CCCCC1O2 (stereo in doubt) [Compound 487]
Ent. A Max Activity (Enteroid Assay A): +++ (+++ is >600%)
pEC50 (Enteroid Assay A): > 6.00

Compound: Cc1cccc(C)c1-c1cc2nc(n1)NS(=O)(=O)c1cccc(c1)C(=O)NCC1(CCN(C(=O)C3CCCCN3Cc3ccc(F)cc3)CC1)CO2 (centres unmarked) [Compound 456]
Ent. A Max Activity (Enteroid Assay A): ++ (++ is 30-60%)
pEC50 (Enteroid Assay A): 4.52 to 5.52

Compound: Cc1cccc(C)c1-c1cc2nc(n1)NS(=O)(=O)c1cccc(c1)C(=O)NCC1(CCN(C(=O)C(CC(C)C)NC(=O)OC(C)(C)C)CC1)CO2 (centres unmarked) [Compound 450]
Ent. A Max Activity (Enteroid Assay A): ++ (++ is 30-60%)
pEC50 (Enteroid Assay A): 4.52 to 5.52

Compound: Cc1cccc(C)c1-c1cc2nc(n1)NS(=O)(=O)c1cccc(c1)C(=O)NCC1(CCN(C[C@H]3COC(C)(C)N3C(=O)OC(C)(C)C)CC1)CO2 [Compound 439]
Ent. A Max Activity (Enteroid Assay A): ++ (++ is 30-60%)
pEC50 (Enteroid Assay A): 4.52 to 5.52

Second part, the compound after the results:

pEC50 (Table 8): 5.52 to 6.00
Compound: Cc1cccc(C)c1-c1cc2nc(n1)NS(=O)(=O)c1cccc(c1)C(=O)NCC(CC(C)C)O2 (centres unmarked) [Compound 255]

pEC50 (Table 8): > 6.00
Compound: Cc1cccc(C)c1-c1cc2nc(n1)NS(=O)(=O)c1cccc(c1)C(=O)NCC(c1ccc(Br)cc1)O2 (single isomer, unassigned) [Compound 20, 10-(4-bromophenyl)-6-(2,6-dimethylphenyl)-2,2-dioxo-9-oxa-2λ^6-thia-3,5,12,19-tetrazatricyclo[12.3.1.14,8]nonadeca-1(18),4(19),5,7,14,16-hexaen-13-one]

Ent. A Max Activity (Table 8): + (+ is <30%)
Compound: Cc1cccc(C)c1-c1cc2nc(n1)NS(=O)(=O)c1cccc(c1)C(=O)NCC(c1ccc(C(C)(C)C#N)cc1)O2 (centres unmarked) [Compound 152]

Ent. A Max Activity (Table 8): +++ (+++ is >60%)
pEC50 (Table 8): > 6.00
Compound: Cc1cccc(C)c1-c1cc2nc(n1)NS(=O)(=O)c1cccc(c1)C(=O)N[C@@H]1Cc3ccccc3[C@@H]1O2 (stereo in doubt) [Compound 246]

Ent. A Max Activity (Table 9): + (+ is <30%)
pEC50 (Table 9): > 6.00
Compound: CCC(CC)(CC)c1ccc([C@@H]2CNC(=O)c3cccc(c3)S(=O)(=O)Nc3nc(cc(-c4c(C)cccc4C)n3)O2)cc1 [Compound 259]

Ent. A Max Activity (Table 9): ++ (++ is 30-60%)
pEC50 (Table 9): > 6.00
Compound: CCC(CC)(CC)c1ccc(C2CNC(=O)c3cccc(c3)S(=O)(=O)Nc3nc(cc(-c4c(C)cccc4C)n3)O2)cc1 (centres unmarked) [Compound 266]

pEC50 (Table 8): > 6.00
Compound: Cc1cccc(C)c1-c1cc2nc(n1)NS(=O)(=O)c1cccc(c1)C(=O)NCC(c1ccccc1C(C)(C)C)O2 (centres unmarked) [Compound 278]

Ent. A Max Activity (Table 8): +++ (+++ is >60%)
pEC50 (Table 8): > 6.00
Compound: Cc1cccc(C)c1-c1cc2nc(n1)NS(=O)(=O)c1cccc(c1)C(=O)NC[C@@H](c1ccc(C(C)(F)F)cc1)O2 (stereo in doubt) [Compound 399]

pEC50 (Table 8): > 6.00
Compound: Cc1ccccc1[C@@H]1CNC(=O)c2cccc(c2)S(=O)(=O)Nc2nc(cc(-c3c(C)cccc3C)n2)O1 [Compound 276]

Ent. A Max Activity (Table 8): +++ (+++ is >60%)
pEC50 (Table 8): > 6.00
Compound: Cc1cccc(C)c1-c1cc2nc(n1)NS(=O)(=O)c1cccc(c1)C(=O)NCC(c1ccc(Cl)cc1)O2 (centres unmarked) [Compound 251]

Ent. A Max Activity (Table 8): +++ (+++ is >60%)
pEC50 (Table 8): > 6.00
Compound: Cc1cccc(C)c1-c1cc2nc(n1)NS(=O)(=O)c1cccc(c1)C(=O)NCC(c1ccc(CC(C)(C)C)cc1)O2 (centres unmarked) [Compound 267]

Ent. A Max Activity (Table 8): +++ (+++ is >60%)
pEC50 (Table 8): > 6.00
Compound: Cc1cccc(C)c1-c1cc2nc(n1)NS(=O)(=O)c1cccc(c1)C(=O)NCC(c1ccc3c(c1)OCCO3)O2 (centres unmarked) [Compound 116]

Ent. A Max Activity (Enteroid Assay A): ++ (++ is 30-60%)
pEC50 (Enteroid Assay A): 5.52 to 6.00
Compound: Cc1cccc(C)c1-c1cc2nc(n1)NS(=O)(=O)c1cccc(c1)C(=O)NC(C(C)C)CO2 (centres unmarked) [Compound 355]

Ent. A Max Activity (Table 9): +++ (+++ is >60%)
pEC50 (Table 9): > 6.00
Compound: Cc1cccc(C)c1-c1cc2nc(n1)NS(=O)(=O)c1cccc(c1)C(=O)NC[C@@H](c1ccc(C(C)(C)C(F)(F)F)cc1)O2 [Compound 256]

pEC50 (Table 8): > 6.00
Compound: Cc1cccc(C)c1-c1cc2nc(n1)NS(=O)(=O)c1cccc(c1)C(=O)NCC(c1ccc(C(C)C)cc1)O2 (centres unmarked) [Compound 275]

pEC50 (Table 8): > 6.00
Compound: Cc1cccc(C)c1-c1cc2nc(n1)NS(=O)(=O)c1cccc(c1)C(=O)NCC(c1ccc(-c3ccccc3)cc1)O2 (centres unmarked) [Compound 231]
